Key:
[1] = test system: Niemann-Pick A (NPA) patient fibroblasts; assay: Lysosomal volume via LysoTracker, NPA fibroblasts; type: cell-based, human; conditions: 1 mM, 6 days
MSA-C patients = assay: Case studies, multisystemic atrophy cerebellar type (MSA-C) patients; type: in vivo, human
MSA-P patients = assay: Case studies, multiple system atrophy Parkinson type (MSA-P) patients; type: in vivo, human
Text: Medication was stopped. […] The patient evaluated after one month on acetyl-DL-leucine. […] Episodes of mental confusion completely disappeared. The patient's cognitive structure seemed much clearer and straighter. […] The patient's spouse supported continuing the medication.

SCA 28 patient = assay: Case study, spinocerebellar ataxia 28 (SCA 28); type: in vivo, human
Method: A gait analysis was performed before treatment commenced. After about one month of treatment, medication was stopped and the patient was evaluated. […] The patient reported that they no longer walked like a robot and could climb the stairs without using the banisters.

ALS patients = assay: Case studies, amyotrophic lateral sclerosis (ALS) patients; type: in vivo, human
Text: The results were documented by video.

[2] = test system: Tay-Sachs disease patient fibroblasts; assay: Glycosphingolipid (GSL) levels by HPLC, Tay-Sachs fibroblasts; type: cell-based, human; conditions: 1 mM for 6 days, p<0.05
[3] = test system: amyloid precursor protein C-terminal fragments (APP-CTFs); assay: APP-CTF levels in cerebellum of NPC1−/− mice; type: in vivo, mouse; conditions: 0.1 g/kg body weight daily from 3 weeks of age, sacrificed at 8 weeks
Method: The Niemann-Pick Disease Type C (NPC) mouse model shares a number of pathological features with Alzheimer's disease (AD) as described herein. […] Mice were sacrificed at 8 weeks of age. Levels of amyloid precursor protein C-terminal fragments (APP-CTFs) were evaluated relative to total amyloid precursor protein (APP) levels in the cerebellum for wild type, untreated wild type NPC1^−/− mice, and AL-treated wild type NPC1^−/− mice. Levels of microtubule-associated protein 1A/1B-light chain 3-phosphatidylethanolamine conjugate (LC3-II) were also evaluated relative to levels of tubulin loading control for wild type, untreated wild type NPC1^−/− mice, and AL-treated wild type NPC1^−/− mice.

[4] = test system: progressive supranuclear palsy patients; assay: Case studies, progressive supranuclear palsy patients; type: in vivo, human; conditions: for Clinical observation: 5 g per day; for Symptoms after stopping medication: about two months later
Method: After 27 days of acetyl-leucine treatment, medication was stopped and the patient was re-examined 60 days later. […] Gait analysis was performed before treatment commenced. […] Gait analysis was performed before treatment commenced. After 17 days of treatment, medication was stopped and the patient was re-examined 4 days later. […] Gait analysis was performed before treatment commenced. After three weeks of treatment, medication was stopped and the patient was re-examined.

[5] = MSA-C Patient 3, after 20 days of re-suspending treatment
[6] = MSA-C Patient 3, after 27 days of treatment
[7] = MSA-C Patient 3, shortly after commencing treatment
[8] = MSA-P Patient 2, after 1 month of treatment
[9] = MSA-P Patient 2, after 1 month without treatment
[10] = MSA-P Patient 2, after 2 months without treatment
[11] = ALS Patient 1, after a further 20 days

CC(=O)NC(CC(C)C)C(=O)O (racemic) [acetyl-DL-leucine]
LysoTracker fluorescence relative to untreated disease fibroblasts [1]: statistically significant reduction in LysoTracker fluorescence
Speech (MSA-C patients; MSA-C Patient 1, 5 g per day, after one week): significant improvement in speech
Falls (MSA-C patients; MSA-C Patient 2, after 3 weeks, before approximately 10 falls a month): falls completely stopped
Symptoms after stopping medication (MSA-C patients; MSA-C Patient 2, one week after stopping): deterioration of gait and dizziness
Symptoms after stopping medication again (MSA-C patients; MSA-C Patient 2, two days after stopping, following a further 40 days of treatment): progressive deterioration of gait and dizziness
Gait (MSA-C patients; MSA-C Patient 2, up to 5 gram per day, after 3 weeks): significant improvement of gait
speed (MSA-C patients; MSA-C Patient 3, 5 gram per day, after 27 days of treatment): 106 cm/s
Coefficient of variation (temporal) (MSA-C patients; [5]): 2.5
Double stance (MSA-C patients; [5]): 27.1%
Functional Gait Assessment (MSA-C patients; [5]): 22/30
Max. speed (MSA-C patients; [5]): 197 cm/s
Step cycle length (MSA-C patients; [5]): 115 cm
Track width (MSA-C patients; [5]): 17.5 cm
cadence (MSA-C patients; [5]): 112 steps/minute
speed (MSA-C patients; [5]): 106 cm/s
Coefficient of variation (temporal) (MSA-C patients; [6]): 3.1
Double stance (MSA-C patients; [6]): 27.3%
Functional Gait Assessment (MSA-C patients; [6]): 20/30
Max. speed (MSA-C patients; [6]): 208 cm/s
Step cycle length (MSA-C patients; [6]): 113 cm
Track width (MSA-C patients; [6]): 14.6 cm
cadence (MSA-C patients; [6]): 113 steps/minute
Gait analysis (summary) (MSA-C patients; MSA-C Patient 3, after one month of treatment): improvement of gait speed, and reductions of track width and gait fluctuations
Symptoms after stopping medication (MSA-C patients; MSA-C Patient 3, approximately two to three weeks after stopping): progressive deterioration of gait and dizziness
Coefficient of variation (temporal) (MSA-C patients; [7]): 3.3
Double stance (MSA-C patients; [7]): 32.5%
Functional Gait Assessment (MSA-C patients; [7]): 21/30
Max. speed (MSA-C patients; [7]): 183 cm/s
Step cycle length (MSA-C patients; [7]): 87 cm
Track width (MSA-C patients; [7]): 16.8 cm
cadence (MSA-C patients; [7]): 101 steps/minute
speed (MSA-C patients; [7]): 72 cm/s
Clinical observation (MSA-P patients; MSA-P Patient 1, 5 g/day, after 3 weeks): no significant improvement of gait, reduction of falls or improved hypokinetic rigid-syndrome
Clinical observation (MSA-P patients; MSA-P Patient 2, 5 g per day, after one month of treatment): subjective improvement of dizziness
Coefficient of variation (temporal) (MSA-P patients; [8]): 2.7
Double stance (MSA-P patients; [8]): 25.6%
Functional Gait Assessment (MSA-P patients; [8]): 24/30
Max. speed (MSA-P patients; [8]): 214 cm/s
Step cycle length (MSA-P patients; [8]): 120 cm
Track width (MSA-P patients; [8]): 3.8 cm
cadence (MSA-P patients; [8]): 109 steps/minute
speed (MSA-P patients; [8]): 109 cm/s
Coefficient of variation (temporal) (MSA-P patients; [9]): 1.7
Double stance (MSA-P patients; [9]): 22.5%
Functional Gait Assessment (MSA-P patients; [9]): 25/30
Max. speed (MSA-P patients; [9]): 196 cm/s
Step cycle length (MSA-P patients; [9]): 126 cm
Track width (MSA-P patients; [9]): 2.3 cm
cadence (MSA-P patients; [9]): 109 steps/minute
speed (MSA-P patients; [9]): 114 cm/s
Coefficient of variation (temporal) (MSA-P patients; [10]): 2.1
Double stance (MSA-P patients; [10]): 26.7%
Functional Gait Assessment (MSA-P patients; [10]): 22/30
Max. speed (MSA-P patients; [10]): 177 cm/s
Step cycle length (MSA-P patients; [10]): 107 cm
Track width (MSA-P patients; [10]): 3.4 cm
cadence (MSA-P patients; [10]): 106 steps/minute
speed (MSA-P patients; [10]): 94 cm/s
Symptoms without medication (MSA-P patients; MSA-P Patient 2, after two months without medication): worsening of general symptomatology
Cognitive function (wife's report) (MSA-P patients; MSA-P Patient 3, 5 g per day, after one month): significant improvement of cognitive function
Gait function (MSA-P patients; MSA-P Patient 3, after one month): no improvement of gait function
Clinical observation (SCA 28 patient; 5 g per day, after about one month): improvement of the symptomatology
Coefficient of variation (temporal) (SCA 28 patient; after treatment for one month, before 4.1): 2.1
Track width (SCA 28 patient; after treatment for one month, before 14.5): 11.7 cm
Functional Gait Assessment (SCA 28 patient; after treatment for one month, before 24/30): 23/30
Double stance (SCA 28 patient; after treatment for one month, before 24.9): 23.8%
cadence (SCA 28 patient; after treatment for one month, before 100): 105 steps/minute
Self-chosen speed (SCA 28 patient; after treatment for one month, before 101): 118 cm/s
Step cycle length (SCA 28 patient; after treatment for one month, before 122): 135 cm
Maximum speed (SCA 28 patient; after treatment for one month, before 188): 201 cm/s
Overall symptoms (ALS patients; ALS Patient 1): improvement in symptoms
Speech (patient report) (ALS patients; ALS Patient 1, 5 gram per day, after 15 days of treatment): significant improvement of speech
Speech after stopping treatment (ALS patients; ALS Patient 1, about 7 days plus 1-2 additional weeks off treatment): deterioration of speech
Paresis of the right foot-dorsiflexors and foot drop (ALS patients; [11]): improved dramatically and were clinically hardly detectable
Sleep (patient report) (ALS patients; [11]): improvement in sleep
Speech (patient report) (ALS patients; [11]): further improvement of speech
Symptomatology after resuming treatment (ALS patients; ALS Patient 1, second resumption): improved symptomatology, in particular speech
Clinical observation (ALS patients; ALS Patient 2, 5 g per day, after approximately 2 months): progredient deterioration of the motor function of the left hand, but a discrete improvement of walking
Swallowing functions (ALS patients; ALS Patient 2, after approximately 2 months): remained stable
Symptomatology (ALS patients; ALS Patient 3, 5 g per day, after one month): did not report improvement of symptomatology
Clinical observation (ALS patients; ALS Patient 4, 5 g per day, after about one month): subjective improvement of dysphagia and less hypersalivation
Symptomatology after suspension (ALS patients; ALS Patient 4, 10 days after therapy was suspended): worsening of symptomatology
ALS-FRS score (ALS patients; ALS Patient 4, about 8 weeks after resuming continuous treatment, before treatment 44/48): 43/48
GSL storage (decrease) [2]: statistically significant
APP-CTF levels relative to total APP in the cerebellum [3]: lowering of APP-CTFs
Symptoms after suspension of treatment ([4]; PSP Patient 1): symptoms worsened
Clinical observation ([4]; PSP Patient 1, 27 days of treatment): significant reduction of dizziness and slight improvement of gait
PSPRS Score ([4]; PSP Patient 1, re-examined about two months later): remained stable
Clinical observation ([4]; PSP Patient 2, 17 days of treatment, re-examined 4 days after stopping): no significant improvement of gait or hypokinetic rigid syndrome
Symptoms after stopping medication ([4]; PSP Patient 2): no deterioration of symptoms
Coefficient of variation (temporal) ([4]; PSP Patient 2, after 17 days of treatment, before 8.5): 6.6
Track width ([4]; PSP Patient 2, after 17 days of treatment, before 10.3): 9.3 cm
Functional Gait Assessment ([4]; PSP Patient 2, after 17 days of treatment, before 15/30): 15/30
Double stance ([4]; PSP Patient 2, after 17 days of treatment, before 34.5): 28.6%
speed ([4]; PSP Patient 2, after 17 days of treatment, before 51): 68 cm/s
Step cycle length ([4]; PSP Patient 2, after 17 days of treatment, before 66): 82 cm
cadence ([4]; PSP Patient 2, after 17 days of treatment, before 93): 99 steps/minute
Max. speed ([4]; PSP Patient 2, after 17 days of treatment, before 123): 98 cm/s
Clinical observation ([4]; PSP Patient 3, 17 days of treatment, re-examined 4 days after stopping): no significant improvement of gait or hypokinetic rigid syndrome
Symptoms after stopping medication ([4]; PSP Patient 3): no deterioration of symptoms
Coefficient of variation (temporal) ([4]; PSP Patient 3, after 17 days of treatment, before 3.6): 3.1
Track width ([4]; PSP Patient 3, after 17 days of treatment, before 15.5): 15.1 cm
Double stance ([4]; PSP Patient 3, after 17 days of treatment, before 25.8): 24.3%
Functional Gait Assessment ([4]; PSP Patient 3, after 17 days of treatment, before 28/30): 27/30
speed ([4]; PSP Patient 3, after 17 days of treatment, before 103): 120 cm/s
cadence ([4]; PSP Patient 3, after 17 days of treatment, before 106): 112 steps/minute
Step cycle length ([4]; PSP Patient 3, after 17 days of treatment, before 118): 129 cm
Max. speed ([4]; PSP Patient 3, after 17 days of treatment, before 163): 194 cm/s
Clinical observation ([4]; PSP Patient 4, after three weeks of treatment): gait with increased subjective security and with reduced frequency of falls
Functional Gait Assessment ([4]; PSP Patient 4, after 3 weeks of treatment): 14/30
Coefficient of variation (temporal) ([4]; PSP Patient 4, after 3 weeks of treatment, before 8.2): 6.8
Track width ([4]; PSP Patient 4, after 3 weeks of treatment, before 15.4): 13.6 cm
speed ([4]; PSP Patient 4, after 3 weeks of treatment, before 39): 65 cm/s
Step cycle length ([4]; PSP Patient 4, after 3 weeks of treatment, before 43): 63 cm
Double stance ([4]; PSP Patient 4, after 3 weeks of treatment, before 45.4): 36%
Max. speed ([4]; PSP Patient 4, after 3 weeks of treatment, before 70): 93 cm/s
cadence ([4]; PSP Patient 4, after 3 weeks of treatment, before 109): 125 steps/minute
Symptoms without medication ([4]; PSP Patient 4, after three months without medication): progression of hypokinetic-rigid syndrome
